These results are taken from patent US9809799B2, “Methods for inactivating viruses during a protein purification process” (priority 2012, dated 2017).

One assay deals with X-MuLV. The assay is described as follows: X-MuLV virus inactivation using caprylic acid and detergents in test tubes. It counts as cell-based, xenotropic murine leukemia virus. To be noted: for time for complete virus inactivation: clarified cell culture.
For assay [1], the system named is Herpes simplex virus-1 (HSV-1). The note with it: 20° C., cell culture harvest broth; cited from earlier work.
Assay [2] has as its system Vesicular stomatitis virus (VSV). The note with it: cited from earlier work.
The subject of assay [3] is Friend murine leukemia virus (FrMuLV). To be noted: 0.5%, 4° C., within four hours; cited from earlier work.
The test system of assay [4] is respiratory syncytial virus (RSV). To be noted: 0.5%, 4° C., within four hours; cited from earlier work.

A value given as a limit tells only on which side of the number the result lay.

As to `CCCCCCCC(=O)O` [Caprylate, caprylic acid], the “X-MuLV virus inactivation (LRV)” value was 0 in the assay with X-MuLV (MAb05 cell culture, 20 mM pH 5.5, time 0 min); 2.63 in the assay on X-MuLV (MAb05 cell culture, 20 mM pH 5.5, time 1 min); “≧3.8” in the assay on X-MuLV (MAb05 cell culture, 20 mM pH 5.5, time 5 min); “≧3.8” with X-MuLV (MAb05 cell culture, 20 mM pH 5.5, time 10 min); “≧3.8” with X-MuLV (MAb05 cell culture, 20 mM pH 5.5, time 20 min); 0 in the assay on X-MuLV (MAb05 cell culture, 200 mM pH 7, time 0 min). Further, the “X-MuLV virus inactivation (LRV)” value in the assay on X-MuLV (MAb05 cell culture, 200 mM pH 7, time 1 min) is 2.91; with X-MuLV (MAb05 cell culture, 200 mM pH 7, time 5 min), “≧3.8”; in the assay with X-MuLV (MAb05 cell culture, 200 mM pH 7, time 10 min), “≧3.8”; with X-MuLV (MAb05 cell culture, 200 mM pH 7, time 20 min), “≧3.8”; in the assay on X-MuLV (Pure MAb07, 20 mM pH 5.5, time 0 min), 0; with X-MuLV (Pure MAb07, 20 mM pH 5.5, time 1 min), “≧3.1”. Further, the “X-MuLV virus inactivation (LRV)” value in the assay with X-MuLV (Pure MAb07, 20 mM pH 5.5, time 5 min) was “≧3.1”; with X-MuLV (Pure MAb07, 20 mM pH 5.5, time 10 min), “≧3.1”; with X-MuLV (Pure MAb07, 20 mM pH 5.5, time 20 min) it was “≧3.1”; in the assay with X-MuLV (Pure MAb07, 200 mM pH 7, time 0 min), 0; in the assay with X-MuLV (Pure MAb07, 200 mM pH 7, time 1 min), “≧3.1”; in the assay on X-MuLV (Pure MAb07, 200 mM pH 7, time 5 min), “≧3.1”. The “X-MuLV virus inactivation (LRV)” value with X-MuLV (Pure MAb07, 200 mM pH 7, time 10 min) is “≧3.1”; with X-MuLV (Pure MAb07, 200 mM pH 7, time 20 min) it was “≧3.1”. Moreover, the “time for complete virus inactivation” value in the assay with X-MuLV (both pH and salinities) is listed as “requires a minimum of five minutes”. Further, the “time to complete inactivation” value in assay [1] is recorded as “less than 60 minutes”; in assay [2] (20° C., cell culture harvest broth) it was “less than 60 minutes”. For the same compound, the inactivation result in assay [2] (5° C., after 120 minutes) is listed as “only partial inactivation”.
For the compound Triton X, the “X-MuLV virus inactivation (LRV)” value was 0 with X-MuLV (MAb05 cell culture, 0.5%, time 0 min); “≧3.1” in the assay with X-MuLV (MAb05 cell culture, 0.5%, time 1 min); “≧3.1” with X-MuLV (MAb05 cell culture, 0.5%, time 5 min); “≧3.1” in the assay on X-MuLV (MAb05 cell culture, 0.5%, time 10 min); “≧3.1” in the assay with X-MuLV (MAb05 cell culture, 0.5%, time 20 min); 0 in the assay on X-MuLV (Pure MAb07, 0.5%, time 0 min). The “X-MuLV virus inactivation (LRV)” value in the assay with X-MuLV (Pure MAb07, 0.5%, time 1 min) is on record as “≧3.1”; with X-MuLV (Pure MAb07, 0.5%, time 5 min), “≧3.1”; with X-MuLV (Pure MAb07, 0.5%, time 10 min), “≧3.1”; with X-MuLV (Pure MAb07, 0.5%, time 20 min), “≧3.1”. The “time for complete virus inactivation” value in the assay with X-MuLV (0.5%) is reported as “complete virus inactivation after one minute”. The “Log 10 reduction values” in assay [3] was more than 3.8; in assay [4], more than 5.4.
